Key:
[1] = system: Green Peach Aphid (Myzus Persicae); experiment: Insecticidal test for green peach aphid in foliar spray assay (col. MYZUPE); format: in vivo; conditions: Myzus persicae, 72 h, green peach aphid, read-out: MYZUPE 200 ppm (Corrected % Control, rating)
Procedure: (§1) The compounds were tested against cotton aphid, green peach aphid, and sweet potato whitefly using procedures described in the following examples and reported in Table 2.
(§2) In each case of Table 2, the rating scale is as follows at 200 ppm.
Insecticidal Test for Green Peach Aphid (Myzus Persicae) in Foliar Spray Assay
Cabbage seedlings grown in 3-inch pots, with 2-3 small (3-5 cm) true leaves, were used as test substrate. The seedlings were infested with 20-50 green peach aphids (wingless adult and nymph) one day prior to chemical application. Four pots with individual seedlings were used for each treatment. Compounds (2 mg) were dissolved in 2 mL of acetone/methanol (1:1) solvent, forming stock solutions of 1000 ppm. The stock solutions were diluted 5× with 0.025% Tween 20 in H2O to obtain a test solution at 200 ppm. A hand-held Devilbiss sprayer was used for spraying a solution to both sides of cabbage leaves until runoff. Reference plants (solvent check) were sprayed with the diluent only. Treated plants were held in a holding room for three days at approximately 25° C. and 40% relative humidity (RH) prior to grading. Evaluation was conducted by counting the number of live aphids per plant under a microscope. Corrected % Control=100*(X−Y)/X • where X=No. of live aphids on solvent check plants • Y=No. of live aphids on treated plants

[2] = system: Sweetpotato Whitefly-Crawler (Bemisia Tabaci); experiment: Insecticidal test for sweetpotato whitefly-crawler in foliar spray assay (col. BEMITA); format: in vivo; conditions: Bemisia tabaci, sweetpotato whitefly-crawler, read-out: BEMITA 200 ppm (Corrected % Control, rating)
Procedure: as §1, §2
Insecticidal Test for Sweetpotato Whitefly-Crawler (Bemisia Tabaci) in Foliar Spray Assay
Cotton plants grown in 3-inch pots, with 1 small (3-5 cm) true leaf, were used as test substrate. The plants were placed in a room with whitefly adults. Adults were allowed to deposit eggs for 2-3 days. After a 2-3 day egg-laying period, plants were taken from the adult whitefly room. Adults were blown off leaves using a hand-held Devilbiss sprayer (23 psi). Plants with egg infestation (100-300 eggs per plant) were placed in a holding room for 5-6 days at 82° F. and 50% RH for egg hatch and crawler stage to develop. Four cotton plants were used for each treatment. Compounds (2 mg) were dissolved in 1 mL of acetone solvent, forming stock solutions of 2000 ppm. The stock solutions were diluted 10× with 0.025% Tween 20 in H2O to obtain a test solution at 200 ppm. A hand-held Devilbiss sprayer was used for spraying a solution to both sides of cotton leaf until runoff. Reference plants (solvent check) were sprayed with the diluent only. Treated plants were held in a holding room for 8-9 days at approximately 82° F. and 50% RH prior to grading. Evaluation was conducted by counting the number of live nymphs per plant under a microscope. Insecticidal activity was measured by using Abbott's correction formula and presented in Table 2 (see col. “BEMITA”): Corrected % Control=100*(X−Y)/X • where X=No. of live nymphs on solvent check plants • Y=No. of live nymphs on treated plants Pesticidally Acceptable Acid Addition Salts, Salt Derivatives, Solvates, Ester Derivatives, Polymorphs, Isotopes and Radionuclides

SMILES | pest or weed control at 200 ppm [1] [%] | pest or weed control at 200 ppm [2] [%]
CCc1nc(-c2cccnc2)sc1N(C)C(=O)C(C)(C)CSC [Compound 49] | < 80 | 80 to 100
CCc1nc(-c2cccnc2)sc1N(C)C(=O)C(C)CSC (stereo not drawn) [Compound 50] | 80 to 100 | 80 to 100
CSCCC(=O)N(C)c1sc(-c2cncnc2)nc1C [Compound 51] | 80 to 100 | 80 to 100
CSCC(C)C(=O)N(C)c1sc(-c2cncnc2)nc1C (stereo not drawn) [Compound 52] | < 80 | 80 to 100
CSCC(C)(C)C(=O)Nc1sc(-c2cccnc2)nc1C [Compound 57] | 80 to 100 | 80 to 100
CSCCC(=O)N(C)c1sc(-c2cccnc2)nc1C(C)C [Compound 59] | < 80 | 80 to 100
CSCC(C)C(=O)N(C)c1sc(-c2cccnc2)nc1C(C)C (stereo not drawn) [Compound 60] | < 80 | < 80
CCN(C(=O)CCSC)c1sc(-c2cccnc2)nc1-c1ccccc1 [Compound 61] | < 80 | < 80
CCN(C(=O)C(C)CSC)c1sc(-c2cccnc2)nc1-c1ccccc1 (stereo not drawn) [Compound 62] | < 80 | < 80
CCN(C(=O)C(C)C)c1sc(-c2cccnc2)nc1-c1ccccc1 [Compound 63] | < 80 | < 80
CSCCC(=O)N(C)c1sc(-c2cccnc2)nc1Cl [Compound 66, N-(4-chloro-2-pyridin-3-yl-thiazol-5-yl)-N-methyl-3-methylsulfanyl-propionamide] | 80 to 100 | 80 to 100
CSCCNC(=O)N(C)c1cnc(-c2cncc(F)c2)s1 [Compound 72, [2-(5-fluoropyridin-3-yl)-thiazol-5-yl]-1-methyl-3-(2-methylsulfanyl-ethyl)urea] | 80 to 100 | < 80
CCC(C)NC(=O)N(C)c1cnc(-c2cncc(F)c2)s1 (stereo not drawn) [Compound 73, 3-sec-Butyl-1-[2-(5-fluoropyridin-3-yl)-thiazol-5-yl]-1-methyl-urea] | 80 to 100 | 80 to 100
CSCCN(C)C(=O)N(C)c1cnc(-c2cncc(F)c2)s1 [Compound 74, [2-(5-fluoropyridin-3-yl)-thiazol-5-yl]-1,3-dimethyl-3-(2-methylsulfanyl-ethyl)urea] | 80 to 100 | 80 to 100
CSCCOC(=O)N(C)c1cnc(-c2cncc(F)c2)s1 [Compound 75, [2-(5-fluoropyridin-3-yl)-thiazol-5-yl]-methyl-carbamic acid 2-methylsulfanyl-ethyl Ester] | 80 to 100 | < 80
CCOC(=O)N(C)c1cnc(-c2cncc(F)c2)s1 [Compound 76, [2-(5-Fluoropyridin-3-yl)-thiazol-5-yl]-methyl-carbamic acid ethyl ester] | 80 to 100 | 80 to 100
CN(C(=O)OCc1ccc([N+](=O)[O-])o1)c1cnc(-c2cncc(F)c2)s1 [Compound 77, [2-(5-Fluoropyridin-3-yl)-thiazol-5-yl]-methyl-carbamic acid 5-nitro-furan-2-ylmethyl ester] | 80 to 100 | < 80
CN(C(=O)CC[S+](C)[O-])c1cnc(-c2cncc(F)c2)s1 (stereo not drawn) [Compound 78, N-[2-(5-fluoropyridin-3-yl)-thiazol-5-yl]-3-methanesulfinyl-N-methyl-propionamide] | 80 to 100 | < 80
Cc1nc(-c2cncc(F)c2)sc1N(C)C(=O)C(C)C[S+](C)[O-] (stereo not drawn) [Compound 86] | 80 to 100 | 80 to 100
Cc1nc(-c2cccnc2)sc1N(C)C(=O)C(C)C[S+](C)[O-] (stereo not drawn) [Compound 87] | 80 to 100 | 80 to 100
CN(C(=O)CC[S+](C)[O-])c1sc(-c2cccnc2)nc1C(F)(F)F (stereo not drawn) [Compound 88] | 80 to 100 | 80 to 100

SMILES | pest or weed control at 200 ppm [1] [%] | pest or weed control at 200 ppm [2] [%]
CC(C[S+](C)[O-])C(=O)N(C)c1sc(-c2cccnc2)nc1C(F)(F)F (stereo not drawn) [Compound 89] | < 80 | 80 to 100
Cc1nc(-c2cccnc2)sc1N(C)C(=O)CC[S+](C)[O-] (stereo not drawn) [Compound 90] | 80 to 100 | 80 to 100
Cc1nc(-c2cncc(F)c2)sc1N(C)C(=O)CC[S+](C)[O-] (stereo not drawn) [Compound 91] | 80 to 100 | 80 to 100
Cc1nc(-c2cccnc2)sc1N(C)C(=O)CCS(C)(=O)=O [Compound 95, 3-methanesulfonyl-N-methyl-N-(4-methyl-2-pyridin-3-yl-thiazol-5-yl)-propionamide] | 80 to 100 | 80 to 100
Cc1nc(-c2cccnc2)sc1N(C)C(=O)C(C)(C)CS(C)(=O)=O [Compound 97] | 80 to 100 | 80 to 100
CSCC(C)C(=O)Nc1sc(-c2cccnc2)nc1C(F)(F)F (stereo not drawn) [Compound 134] | 80 to 100 | < 80
CSCC(C)(C)C(=O)Nc1sc(-c2cccnc2)nc1C(F)(F)F [Compound 135] | 80 to 100 | < 80
COc1cncc(-c2nc(C)c(NC(=O)C(C)CSC)s2)c1 (stereo not drawn) [Compound 137] | < 80 | < 80
C=CCSCC(C)C(=O)N(C)c1sc(-c2cccnc2)nc1C (stereo not drawn) [Compound 138] | 80 to 100 | 80 to 100
CSCC(C)(C)C(=O)Nc1sc(-c2cncc(F)c2)nc1C [Compound 139] | 80 to 100 | 80 to 100
CSCC(C)C(=O)N(C(=O)C(C)C)c1sc(-c2cncc(S(C)(=O)=O)c2)nc1C (stereo not drawn) [Compound 152] | < 80 | < 80
CSCC(C)C(=O)N(C(=O)OC(C)(C)C)c1sc(-c2cccnc2F)nc1C (stereo not drawn) [Compound 154] | < 80 | < 80
CCOC(=O)c1cncc(-c2nc(C)c(N(C(=O)OC(C)(C)C)C(=O)C(C)CSC)s2)c1 (stereo not drawn) [Compound 155] | < 80 | < 80
CSCC(C)C(=O)N(C(=O)OC(C)(C)C)c1sc(-c2cncc(C)c2)nc1C (stereo not drawn) [Compound 156, [4-methyl-2-(5-methyl-pyridin-3-yl)-thiazol-5-yl]-(2-methyl-3-methylsulfanyl-propionyl)-carbamic acid tert-butyl ester] | 80 to 100 | < 80
CSCC(C)C(=O)N(C(=O)OC(C)(C)C)c1sc(-c2cncc(S(C)(=O)=O)c2)nc1C (stereo not drawn) [Compound 157] | < 80 | < 80
Cc1nc(-c2ccc(F)nc2)sc1N(C(=O)C(C)C)C(=O)C(C)C [Compound 162] | 80 to 100 | 80 to 100
Cc1nc(-c2cncc(F)c2)sc1NC(=O)C(C)CS(C)(=O)=NC#N (stereo not drawn) [Compound 164, 3-[cyano(methyl)sulfonimidoyl]-N-[2-(5-fluoropyridin-3-yl)-4-methyl-1,3-thiazol-5-yl]-2-methylpropanamide] | 80 to 100 | < 80
Cc1nc(-c2cncc(F)c2)sc1N(C)C(=O)OC(C)(C)C [Compound 165] | 80 to 100 | 80 to 100
Cc1nc(-c2cncc(F)c2)sc1N(C)C(=O)C(C)CS(=O)(Cc1ccc(Cl)nc1)=NC#N (stereo not drawn) [Compound 167] | < 80 | 80 to 100
Cc1nc(-c2cncc(F)c2)sc1N(C)C(=O)C(C)CS(C)(=O)=NC#N (stereo not drawn) [Compound 168] | 80 to 100 | 80 to 100
CCOC(=O)c1cncc(-c2nc(C)c(NC(=O)C(C)CSC)s2)c1 (stereo not drawn) [Compound 170] | < 80 | < 80

Source: patent publication US8853246B2 (Dow AgroSciences LLC, priority 2009, dated 2014)
